Counter-ions that a name gives are not always drawn. Like-named read-outs stand apart in the source and are kept apart here.
Tests used:
[1] = dichloromethane and hexane as extracting solvents
[2] = tested on: denervated extremities at traumatic injuries of sciatic nerve; set-up: method as in ref 4, 5 = [4]; 4 Kuznecov J Arzamascev E Malinovskaja C Pharmacological properties and toxicologic characteristics of stefaglabrin sulphate Medicines Plant Origin in Modern Therapy 1989 2 p. 71 || [5]; 5 Schelchkova II Il'inskaya TN Kuzovkov AD The alkaloids of Stephania glabra Chemistry of Natural Compounds 1965 1 4 210 212; conditions: rabbits, intramuscular injection 0.1 mg/kg; cited from earlier work
synaptic transmission = tested on: synaptic transmission; set-up: method as in PMID 1652103; conditions: at low concentration; cited from earlier work
[3] = without side effects such as α- or β-adrenergic blockade, sedative or depressant effect; cited from earlier work
cholinesterase = tested on: cholinesterase; set-up: method as in ref 11 = [11]; 11 Berezhinskaya VV Nikittna SS Trutneva EA Medicinal plants pharmacology and chemotherapy Trudy Vsesoyuznogo Nauchno-Issledovatel'skogo Instituta Lekarstvenny Rastenii 1971 14 66 69; conditions: in vitro; cited from earlier work
pseudocholinesterase = tested on: pseudocholinesterase; set-up: method as in ref 11 = [11]; 11 Berezhinskaya VV Nikittna SS Trutneva EA Medicinal plants pharmacology and chemotherapy Trudy Vsesoyuznogo Nauchno-Issledovatel'skogo Instituta Lekarstvenny Rastenii 1971 14 66 69; conditions: in vitro; cited from earlier work
[4] = water and aqueous alcohol; cited from earlier work
[5] = type: in vivo, rabbit; conditions: i.m. injection, plasma, from 15 min, extrapolated to infinity
Procedure: The selected rabbits were administrated intramuscular with stephaglabrine sulfate at doses 0.1 mg/kg as it was established before. Each animal received a single dose.
Quantitative analysis was acquired in SRM (selected reactions monitoring) mode on Agilent 6490 triple quadrupole mass spectrometer (Agilent, USA) operated in the positive mode and equipped with Jet Stream ESI ion source. Stepharine was detected in the scheduled selected reaction monitoring (SRM) with unit resolution at both first (Q1) and third (Q3) quadrupoles. The retention time point of stepharine was determined as 9.8 with isolation width of 1 minute for the scheduled SRM method application. The optimal conditions of the analysis were achieved as follows: capillary voltage was −4500 V, nozzle voltage was set at −1200 V, flow rate of drying gas (N2) was 16 L/min, flow rate of sheath gas (N2) was 8 L/min, temperature of drying gas was set at 340°C, temperature of sheath gas was set at 290°C, and nebulizer gas was operated at 20 psi. The transitions for protonated stepharine [M+H]^+ 298.4 → 161.2, 192.1, 238.2 were selected for SRM analysis. The isolation window for the fragment ions was set at 0.27 amu, the optimum fragmentor voltage was adjusted to 310 V and collision energy −19 eV. All the samples including calibration points were analyzed in three replications. 30 μL of the samples was injected and loaded on chromatographic column. Calibration was performed on standard samples solution prepared in 20% acetonitrile with concentration of stepharine from 10^−4 μg/mL to 100 μg/mL. Chromatographic separation was performed on Thermo Hypersil-Keystone ODS column (Thermo Scientific, USA) 100 × 2.1 mm, 5 μm particle size, at flow rate of 200 μL/min and with the following elution conditions: loading onto the column at maintained 20% of mobile phase B for 3 minutes, increasing the gradient to 50% of B at 5 minutes following increasing the gradient to 100% of mobile phase B at 15 minutes. The column was washed and maintained at 100% mobile phase B from 15 to 22 minutes and the composition was decreased to 20% of solvent B at 23 minute. The column was reequilibrated at starting conditions of solvent A-solvent B system ([…], v/v) for 10 minutes at flow 200 μL/min.
0.5 mL of blood samples from each animal was collected from ear vein in the tubes with EDTA before administration and at 15, 30, 60, 90, 120, 180, 480, 720, and 1440 minutes after drug ingestion. Blood samples were immediately put on ice and centrifuged at 5000 g for 10 minutes at 4°C within one hour after blood collection. The obtained plasma was placed in sterile tube and kept at −20°C until analysis.
Plasma proteins were precipitated with acetonitrile. For this purpose, two volumes of acetonitrile were added to 100 μL of rabbit plasma into 1.5 mL plastic tube and 30% ammonia hydroxide was added to adjust the pH to 10. After vortex-mixing for 15 minutes at ambient temperature one volume of chloroform was added three times consequently for 2 hours and incubated at 30°C under regular stirring at 900 rpm at each occasion. The first fraction of upper organic layer was collected after 2 hours of incubation, the second and the third fractions of chloroform extract were collected after additional 30 and 60 minutes of incubation, respectively. The collected fractions were combined and transferred to a new tube and dried under vacuum at 30°C. The resulting pellet was resuspended in 100 μL of 20% water-acetonitrile solution and centrifuged at 14000 rpm for 15 minutes immediately before use. The obtained solution was used for LC-MS analysis. […]

Compound: COc1cc2c3c(c1OC)C1(C=CC(=O)C=C1)C[C@H]3NCC2 [stephaglabrine sulfate, Stephaglabrine sulfate]
- solubility in highly nonpolar solvents [1]: low solubility
- intensity of trophic disturbances of denervated extremities [2]: significantly decreases intensity of trophic disturbances
- frequency of miniature endplate potential (synaptic transmission): diminishes frequency of miniature endplate potential
- antihypertensive activity [3]: possesses antihypertensive activity
- inhibition of cholinesterase (cholinesterase): inhibits
- inhibition of pseudocholinesterase (pseudocholinesterase): inhibits
- solubility [4]: soluble in water and aqueous alcohol
- AUC15 ([5]; rabbit ST01, dosage 0.50 mg (0.1 mg/kg)): 1661 ng∗min/mL
- AUC15 ([5]; rabbit ST02, dosage 0.50 mg (0.1 mg/kg)): 3187 ng∗min/mL
- AUC15 ([5]; rabbit ST04, dosage 0.45 mg (0.1 mg/kg)): 2516 ng∗min/mL
- AUC15 ([5]; rabbit ST05, dosage 0.50 mg (0.1 mg/kg)): 2217 ng∗min/mL
- AUC15 ([5]; rabbit ST06, dosage 0.50 mg (0.1 mg/kg)): 2769 ng∗min/mL
